From patent EP4759807A1, “PROTEOLYSIS TARGETING CHIMERA COMPOUND FOR DEGRADING IRAK4 AND USE THEREOF” (Shenzhen Zhongge Biological Technology Co., Ltd., priority 2023, dated 2025) come the findings set out here.

The target in assay [1] is T1, IRAK4 (Homo sapiens, UniProt Q9NWZ3).
T1 sequence (Q9NWZ3 1-460): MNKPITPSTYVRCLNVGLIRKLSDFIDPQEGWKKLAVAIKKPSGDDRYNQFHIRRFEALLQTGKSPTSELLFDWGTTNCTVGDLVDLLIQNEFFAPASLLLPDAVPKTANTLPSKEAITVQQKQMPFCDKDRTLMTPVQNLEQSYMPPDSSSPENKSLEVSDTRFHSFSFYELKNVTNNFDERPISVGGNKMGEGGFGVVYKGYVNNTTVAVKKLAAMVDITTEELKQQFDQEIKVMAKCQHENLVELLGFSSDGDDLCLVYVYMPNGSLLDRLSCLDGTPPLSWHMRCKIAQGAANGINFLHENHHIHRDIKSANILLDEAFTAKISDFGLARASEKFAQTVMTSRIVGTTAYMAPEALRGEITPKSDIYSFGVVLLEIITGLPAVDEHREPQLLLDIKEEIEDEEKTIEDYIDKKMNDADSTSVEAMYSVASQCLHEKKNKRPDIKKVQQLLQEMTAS
The assay is described as follows: WB detection of proteolysis (Western Blot, THP-1 cells). It counts as cell-based. To be noted: Western Blot, THP-1 cells, 24 h; for DC50: read-out: DC50; for Dmax: read-out: Dmax. Here is the method: The degradation level of IRAK4 in THP-1 cells was detected by Western Blot technology. […] 1000X gradient dilution stock of the compound was prepared, with the highest concentration set at 300 µM. The dilution was carried out using DMSO in a 1:3 dilution factor, yielding a total of 9 concentrations. 1000X gradient dilutions of the compound were added to a 12-well plate, with 1 µL per well. Incubation was performed under conditions of 37°C and 5% CO2 for 24 h, and the cells were collected into 2 mL of centrifuge tubes and centrifuged at 5000 rpm for 5 min, and the supernatant was removed. 100 µL of RIPA lysis buffer (Beyotime, P0013C) was added and mixed uniformly, then the cells were lysed on ice for 10 min, centrifuged at 4°C at 14000 rpm for 10 min, and the supernatant was collected. Protein content was determined with BCA (Solarbio, PC0020-10*50T). 75 µL of the supernatant was taken, and 25 µL of NuPAGE LDS Sample Buffer (4X) (Thermo B0007) was added to each tube (5% β-mercaptoethanol was added before use) to prepare samples, and the samples were boiled in a metal bath at 100°C for 5 min. […] 1x NuPAGE™ MOPS SDS electrophoresis buffer (20X) (Invitrogen, NP0001) was prepared, and the electrophoresis instrument was set to a constant current of 300 mA for 100 min, and the protein was transferred to a PVDF membrane (Millipore, IPVH00010). […] The membrane was washed three times with 1x TBST (Elabscience E-BC-R335) the next day, each time for 5 min. […] The membrane was washed three times with TBST, each time for 5 min. The Odyssey imaging system Li-cor Odyssey CLx was used to detect signals and analyze data. GraphPad (Prism 9.3) software was used to perform analysis for data, and non-linear fitting (non-liner inhibitor (Bell-shaped)) and four parameters (4 parameter) were used, and the parameters was as follows: Span1 = Plateau1−Dip [formula] Span2 = Plateau2−Dip [formula] Section1 = Span1/(1+10^(∧)((LogEC50_1−X)*nH1)) [formula] Section2 = Span2/(1+10^(∧)((X−LogEC50_2)*nH2)) [formula]
The equation was as follows: Y=Dip+Section1+Section2.
On the technique in general: In western blotting, separated proteins are transferred to a membrane and probed.

Assay [2] has as its target T1, IRAK4. The assay is described as follows: Hibit fluorescence detection of proteolysis (IRAK4-HiBiT in HEK293T cells). It counts as cell-based. Details: host or cells: HEK293T (ATCC). As to conditions: for Dmax: HEK-293T; for DC50: IRAK4-HiBiT, HEK293T cells, 24 h. The procedure, abridged: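 Degradation read-out: luminescence from lytic HiBiT detection (15 min, room temperature) after 24 h compound exposure (37 °C, 5% CO2) of HEK293T cells transiently expressing IRAK4 fused to a HiBiT tag. Data fitted to a bell-shaped four-parameter model giving two EC50 values.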
Background: HiBiT is a short tag that completes a luciferase, so light tracks the accessible tagged protein.

For the compound `Cn1c(=O)n(C2CCC(=O)NC2=O)c2cccc(N3CCC(N4CCN(C[C@H]5CC[C@H](n6cc(-n7cc(-c8cnn9ccc(N%10CCOC[C@@H]%10CO)nc89)nn7)c(C(F)F)n6)CC5)CC4)CC3)c21` (stereo partly shown) [Example 173], on IRAK4 [1], the DC50 was under 10 nM and the Dmax is over 70%.
For the compound `Cn1c(=O)n(C2CCC(=O)NC2=O)c2cccc(N3CCC(CN4CCC5(CCC(n6cc(-n7cc(-c8cnn9ccc(N[C@@H]%10CCCC[C@@H]%10O)nc89)nn7)c(C(F)F)n6)CC5)CC4)CC3)c21` (stereo partly drawn) [Example 171, 3-(4-(4-((9-(3-(difluoromethyl)-4-(4-(5-(((1R,2S)-2-hydroxycyclohexyl)amino)pyrazolo[1,5-a]pyrimidin-3-yl)-1H-1,2,3-triazol-1-yl)-1H-pyrazol-1-yl]-3-azaspiro[5.5]undecan-3-yl)methyl)piperidin-1-yl)-3-methyl-2-oxo-2,3-dihydro-1H-benzo[d]imidazol-1-yl)piperidine-2,6-dione], at IRAK4 [1], the DC50 is under 10 nM and the Dmax is over 70%.
Regarding `Cn1c(=O)n(C2CCC(=O)NC2=O)c2cccc(N3CCC(CN4CCC5(CCC(n6cc(-n7cc(-n8ccc9cc(C(N)=O)cnc98)nn7)c(C(F)F)n6)CC5)CC4)CC3)c21` (stereo not shown) [Example 286], on IRAK4 [1], the DC50 is over 30 nM and the Dmax was under 60%.
In the case of `Cn1c(=O)n(C2CCC(=O)NC2=O)c2cccc(N3CCC(N4CCN(C[C@H]5CC[C@H](n6cc(-n7cc(-c8cnn9ccc(N%10CCC[C@H](O)C%10)nc89)nn7)c(C(F)F)n6)CC5)CC4)[C@@H](F)C3)c21` (stereo partly drawn) [Example 297, 3-(4-((3S)-4-(4-(((1R,4S)-4-(3-(difluoromethyl)-4-(4-(5-((S)-3-hydroxypiperidin-1-yl)pyrazolo[1,5-a]pyrimidin-3-yl)-1H-1,2,3-triazol-1-yl)-1H-pyrazol-1-yl)cyclohexyl)methyl)piperazin-1-yl)-3-fluoropiperidin-1-yl)-3-methyl-2-oxo-2,3-dihydro-1H-benzo[d]imidazol-1-yl)piperidine-2,6-dione], on IRAK4 [1], the DC50 is under 10 nM and the Dmax is over 70%.
Regarding `C[C@H]1CN(C2CCN(c3cccc4c3n(C)c(=O)n4C3CCC(=O)NC3=O)CC2)CCN1C[C@H]1CC[C@H](n2cc(-n3cc(-c4cnn5ccc(N6CCC[C@H](O)C6)nc45)nn3)c(C(F)F)n2)CC1` (stereo partly drawn) [Example 291, 3-(4-(4-((S)-4-(((1R,4S)-4-(3-(difluoromethyl)-4-(4-(5-((S)-3-hydroxypiperidin-1-yl)pyrazolo[1,5-a]pyrimidin-3-yl)-1H-1,2,3-triazol-1-yl)-1H-pyrazol-1-yl)cyclohexyl)methyl)-3-methylpiperazin-1-yl)piperidin-1-yl)-3-methyl-2-oxo-2,3-dihydro-1H-benzo[d]imidazol-1-yl)piperidine-2,6-dione], on IRAK4 [1], the DC50 was under 10 nM and the Dmax was over 70%.
As for `C[C@@H]1CN(C[C@H]2CC[C@H](n3cc(-n4cc(-c5cnn6ccc(N7CCC[C@H](O)C7)nc56)nn4)c(C(F)F)n3)CC2)CCN1C1CCN(c2cccc3c2n(C)c(=O)n3C2CCC(=O)NC2=O)CC1` (stereo partly drawn) [Example 294, 3-(4-(4-((R)-4-(((1R,4R)-4-(3-(difluoromethyl)-4-(4-(5-((S)-3-hydroxypiperidin-1-yl)pyrazolo[1,5-a]pyrimidin-3-yl)-1H-1,2,3-triazol-1-yl)-1H-pyrazol-1-yl)cyclohexyl)methyl)-2-methylpiperazin-1-yl)piperidin-1-yl)-3-methyl-2-oxo-2,3-dihydro-1H-benzo[d]imidazol-1-yl)piperidine-2,6-dione], at IRAK4 [1], the DC50 was under 10 nM and the Dmax is over 70%.
With `Cn1c(=O)n(C2CCC(=O)NC2=O)c2cccc(N3CCC(CN4CCC5(CCC(n6cc(-n7cc(-c8cnn9ccc(N%10CCC[C@H](O)C%10)nc89)nn7)c(C(F)F)n6)CC5)CC4)CC3)c21` (stereo partly shown) [Example 290], at IRAK4 [1], the DC50 was under 10 nM and the Dmax was over 70%.
On to `Cn1c(=O)n(C2CCC(=O)NC2=O)c2cccc(N3CCC(N4CCN(C[C@H]5CC[C@H](n6cc(-n7cc(-c8cnn9ccc(N%10CCO[C@@H](CO)C%10)nc89)nn7)c(C(F)F)n6)CC5)CC4)CC3)c21` (stereo partly shown) [Example 175], for which, on IRAK4 [1], the DC50 is under 10 nM and the Dmax is over 70%.
In the case of `Cn1c(=O)n(C2CCC(=O)NC2=O)c2cccc(N3CCCN(C[C@H]4CC[C@H](n5cc(-n6cc(-c7ccc8cc(C(N)=O)cnn78)nn6)c(C(F)F)n5)CC4)CC3)c21` (relative stereo) [Example 289, 7-(1-(3-(difluoromethyl)-1-((1R,4R)-4-((4-(1-(2,6-dioxopiperidin-3-yl)-3-methyl-2-oxo-2,3-dihydro-1H-benzoimidazol-4-yl)-1,4-diazepan-1-yl)methyl)cyclohexyl)-1H-pyrazol-4-yl)-1H-1,2,3-triazol-4-yl)pyrrolo[1,2-b]pyridazine-3-carboxamide], at IRAK4 [1], the DC50 was under 10 nM and the Dmax was under 60%.
Take `Cn1c(=O)n(C2CCC(=O)NC2=O)c2cccc(C#CCOC3CCN(C[C@H]4CC[C@H](n5cc(-n6cc(-c7ccc8cc(C(N)=O)cnn78)nn6)c(C(F)F)n5)CC4)CC3)c21` (stereo partly shown) [Example 65]: at IRAK4 [2], the Dmax is 60 to 70% and the DC50 was under 0.5 nM.
On IRAK4 [2], `NC(=O)c1cnn2c(-c3cn(-c4cn([C@H]5CC[C@H](CN6CC7(CC(CCNc8cccc9c8C(=O)N(C8CCC(=O)NC8=O)C9=O)C7)C6)CC5)nc4C(F)F)nn3)ccc2c1` (stereo partly shown) [Example 76, 7-(1-(3-(difluoromethyl)-1-((1r,4r)-4-((6-(2-((2-(2,6-dioxopiperidin-3-yl)-1,3-dioxoisoindolin-4-yl)amino)ethyl)-2-azaspiro[3.3]hept-2-yl)methyl)cyclohexyl)-1H-pyrazol-4-yl)-1H-1,2,3-triazol-4-yl)pyrrolo[1,2-b]pyridazine-3-carboxamide] came in with a Dmax of under 60% and a DC50 of under 0.5 nM.
Take `Cn1c(=O)n(C2CCC(=O)NC2=O)c2cccc(NC(=O)N3CCC4(CCN(C[C@H]5CC[C@H](n6cc(-n7cc(-c8cnn9ccc(N%10CCOCC%10)nc89)nn7)c(C(F)F)n6)CC5)C4)CC3)c21` (stereo partly shown) [Example 18, 2-(((1r,4r)-4-(3-(difluoromethyl)-4-(4-(5-morpholinopyrazolo [1,5-a]pyrimidin-3-yl)-1H-1,2,3-triazol-1-yl)-1H-pyrazol-1-yl)cyclohexyl)methyl)-N-(1-(2,6-dioxopiperidin-3-yl)-3-methyl-2-oxo-2,3-dihydro-1H-benzo[d]imidazol-4-yl)-2,8-diazaspiro[4.5]decan-8-carboxamide]: the Dmax at IRAK4 [2] was over 80%. Moreover, the DC50 on IRAK4 [2] (read-out: DC50) is over 5 nM.
At IRAK4 [2], `Cn1c(=O)n(C2CCC(=O)NC2=O)c2cccc(N3CCC(N4CCN(C[C@H]5CC[C@H](n6cc(-n7cc(-c8cnn9ccc(NCC%10CC%10)nc89)nn7)c(C(F)F)n6)CC5)CC4)CC3)c21` (stereo partly shown) [Example 114] yielded a Dmax of over 80% and a DC50 of under 0.5 nM.
On the same counts, the results for `Cn1c(=O)n(C2CCC(=O)NC2=O)c2cccc(NC[C@H]3CC[C@H](N(C)C[C@H]4CC[C@H](n5cc(-n6cc(-c7cnn8ccc(N9CCOCC9)nc78)nn6)c(C(F)F)n5)CC4)CC3)c21` (stereo partly drawn) [Example 24, 3-(4-((((1R,4r)-4-((((1r,4R)-4-(3-(difluoromethyl)-4-(4-(5-morpholinopyrazolo[1,5-a]pyrimidin-3-yl)-1H-1,2,3-triazol-1-yl)-1H-pyrazol-1-yl)cyclohexyl)methyl)(methyl)amino)cyclohexyl)methyl)amino)-3-methyl-2-oxo-2,3-dihydro-1H-benzo[d]imidazol-1-yl)piperidine-2,6-dione] are under 60% and under 0.5 nM.
